The structures appear in SMILES notation. Where a name gives a salt, the structure may show the parent alone.

The target of test [1] is T1, NO-Synthase (iNOS) (Mus musculus, UniProt P29477).
T1 construct: wird die Neusynthese des NO-produzierenden Enzyms NO-Synthase (iNOS) induziert; endogenous in cells; host or cells: RAW 264.7 mouse macrophages stimulated with LPS and γ-interferon
As to the kind of experiment: NO measurement by oxyhaemoglobin on macrophages (inhibition of NO release, LPS/γIFN-stimulated). The test is classed as cell-based, Maus. As to conditions: Mäusemakrophagen RAW 264.7, stimulated with LPS + γIFN for 4 h, 120 min incubation with test substance; read-out: IC₅₀-Wert.
Procedure: Die Hemmung der NO-Freisetzung durch die Verbindungen der allgemeinen Formel I kann auch durch NO-Messung mittels Oxyhämoglobin auf Makrophagen wie folgt bestimmt werden:
Die subkonfluenten Zellen werden mit dem Zellschaber abgekratzt, in Medium aufgenommen, die Zellzahl bestimmt (Zählung in Trypanblaulösung 0,2 %) und in 24-Napfplatten (1 x 10⁶ Zellen/ml, 1 ml/Napf) ausgesät.
Dazu wird das Kulturmedium von den Zellen abgesaugt und 1 ml/Napf (24-Napfplatte) Inkubationsmedium (MEM ohne Phenolrot (Biochrom F0385)), konditioniert mit 4mM Glutamin, 3,5 g Glukose/l, 3,7 g NaHCO₃/l, 110 mg Natriumpyruvat/l, 50 U/50 µg/ml Pen/Strep und 5 % FKS, aufgegeben. Pro ml Inkubationsmedium werden 1 µl LPS und 1 µl γIFN pipettiert.
Daraus ergeben sich folgende Konzentrationen der Stimulatoren: 140 ng LPS/ml + 5 U γIFN/ml [formula] Während der Stimulation über 4 Stunden wird die Neusynthese des NO-produzierenden Enzyms NO-Synthase (iNOS) induziert. Nach diesem Inkubationszeitraum wird das Inkubationsmedium abgesaugt und jeder Napf zweimal mit frischem Inkubationsmedium gespült. […] Als Kontrolle wird das konditionierte Versuchsmedium nur mit dem Lösungsmittel der Testsubstanz versetzt.
Nach dem Abpipettieren des Versuchsmediums wird die Cytotoxizität der Testsubstanz geprüft (Zellviabilität).

Test [2] has as its target induzierbaren NO-Synthase (Homo sapiens, UniProt P35228). The experiment in a line: NO synthase activity assay: quantification of coproduct 3H-L-citrulline formed from 3H-L-arginine. The settings on record: read-out: Restaktivität. The test is classed as biochemical. The source says: Die erfindungsgemäße Hemmung der NO-Freisetzung durch die Verbindungen der allgemeinen Formel I kann durch einen Aktivitätsassay bestimmt werden, der auf Arbeiten von Bredt und Snyder sowie Schmidt et al. basiert (s. D.S. Bredt und S.S. Snyder, Isolation of nitric oxide synthase, a calmodulin-requiring enzyme, Proc. Natl. Acad. Sci. USA 87 (1990), 682; H.H.H.W.Schmidt et al., Purification of a soluble isoform of guanylyl cyclase-activating factor synthase, Proc. Natl. Acad. Sci. USA 88 (1991), 365). Hierbei wird für gereinigte NO-Synthase (NOS) das bei der NO-Bildung anfallende Coprodukt L-Citrullin quantitativ erfaßt. Dies geschieht durch den Einsatz von ³H-radiomarkiertem L-Arginin als Substrat der Enzymreaktion, das zu ³H-L-Citrullin und NO umgesetzt wird. Nach Beendigung der Enzyminkubation wird […]; die durch Flüssigkeitsszintillationsmessung ermittelte ³H-Aktivität entspricht dann der Menge an L-Citrullin.
• a) Die Substanz ist analog Beispiel 2 erhältlich. Weiße Kristalle vom Schmp. 153 °C. • b) Die pharmakologische Wirkung wurde in dem oben beschriebenen Aktivitätsassy ermittelt, bei dem das von der NO-Synthase als Coprodukt gebildete Citrullin bestimmt wird. Es wurden folgende Hemmungen der induzierbaren NO-Synthase beobachtet: […]

Regarding `NC1=NCCCS1` [Beispiel 1, 2-Amino-5,6-dihydro-4H-1,3-thiazin-Hydrobromid], in test [1], the IC50 turned out to be 1300 nM.

Consider `CC1(C)CCSC(N)=N1` [Beispiel 3, 2-Amino-4,4-dimethyl-5,6-dihydro-1,3-thiazin-Hydrochlorid], for which, in test [2] (Konzentration: 1 µM), the activity at 1 µM amounted to 15%. Also, the activity at 10 µM in test [2] (Konzentration: 10 µM) stood at 12%.

These data come from patent EP0713704A1, “2-Amino-1,3-thiazines as nitric oxide synthase inhibitors” (HOECHST AKTIENGESELLSCHAFT, priority 1994, dated 1996).
